According to paper PMC10458458, “Characterization of Anticancer Effects of the Analogs of DJ4, a Novel Selective Inhibitor of ROCK and MRCK Kinases” (Pharmaceuticals, 2023):

How the values were obtained:
Test in all cases: NCI-60 screen (SRB)
Type in all cases: cell-based, human
HOP-62 = HOP-62 (Non-Small Cell Lung Cancer), 10 µM, 48 h; negative = cell death vs time zero
From the text: (§1) The selected active compounds were screened at NCI, as a part of In Vitro Cell Line Screening Project (IVCLSP), for their effect on cell growth in 60 different cancer cell lines. The 60 human cancer cell line panel included leukemia, melanoma, non-small cell lung cancer, colon, central nervous system (CNS), ovarian, renal, prostate, and breast cancer cell lines. The detailed procedure and applications of NCI-60 cell line screening can be found at https://dtp.cancer.gov/discovery_development/nci-60/default.htm (accessed on 9 January 2023). Briefly, cells were plated in 96-well plates and incubated for 24 h. One set of cells was fixed with trichloroacetic acid at time 0 h (Tz), and SRB (sulphorhodamine B) assays were performed to quantify the cells. The remaining set of cells were treated with 10 µM single concentration of each compound and incubated for 48 h (Te) after which the cells were fixed, and the SRB assays were performed. Data are presented as percent growth relative to the control as 100% according to the following calculations:
(§2) When Te >/= Tz. Growth(%)=Te−Tz/C−Tz∗100 and when Te < Tz. (1) Growth(%)=Te−Tz/Tz∗100
(§3) Values between 0–100 indicate cell growth, zero (0) indicates no cell growth, values < 0 indicate cell death.

T-47D = T-47D (Breast Cancer), 10 µM, 48 h; negative = cell death vs time zero
From the text: as §1, §2, §3

SW-620 = SW-620 (Colon Cancer), 10 µM, 48 h; negative = cell death vs time zero
From the text: as §1, §2, §3

KM12 = KM12 (Colon Cancer), 10 µM, 48 h; negative = cell death vs time zero
From the text: as §1, §2, §3

CAKI-1 = CAKI-1 (Renal Cancer), 10 µM, 48 h; negative = cell death vs time zero
From the text: as §1, §2, §3

NCI-H23 = NCI-H23 (Non-Small Cell Lung Cancer), 10 µM, 48 h; negative = cell death vs time zero
From the text: as §1, §2, §3

CCRF-CEM = CCRF-CEM (Leukemia), 10 µM, 48 h; negative = cell death vs time zero
From the text: as §1, §2, §3

RXF 393 = RXF 393 (Renal Cancer), 10 µM, 48 h; negative = cell death vs time zero
From the text: as §1, §2, §3

DU-145 = DU-145 (Prostate Cancer), 10 µM, 48 h; negative = cell death vs time zero
From the text: as §1, §2, §3

SR = SR (Leukemia), 10 µM, 48 h; negative = cell death vs time zero
From the text: as §1, §2, §3

IGROV1 = IGROV1 (Ovarian Cancer), 10 µM, 48 h; negative = cell death vs time zero
From the text: as §1, §2, §3

M14 = M14 (Melanoma), 10 µM, 48 h; negative = cell death vs time zero
From the text: as §1, §2, §3

SK-MEL-5 = SK-MEL-5 (Melanoma), 10 µM, 48 h; negative = cell death vs time zero
From the text: as §1, §2, §3

SNB-75 = settings: 10 µM, 48 h; for percent cell growth: SNB-75 (CNS Cancer), negative = cell death vs time zero
From the text: as §1, §2, §3

NCI-H226 = NCI-H226 (Non-Small Cell Lung Cancer), 10 µM, 48 h; negative = cell death vs time zero
From the text: as §1, §2, §3

MDA-MB-231 = MDA-MB-231 (Breast Cancer), 10 µM, 48 h; negative = cell death vs time zero
From the text: as §1, §2, §3

NCI-H322M = NCI-H322M (Non-Small Cell Lung Cancer), 10 µM, 48 h; negative = cell death vs time zero
From the text: as §1, §2, §3

PC-3 = PC-3 (Prostate Cancer), 10 µM, 48 h; negative = cell death vs time zero
From the text: as §1, §2, §3

ACHN = ACHN (Renal Cancer), 10 µM, 48 h; negative = cell death vs time zero
From the text: as §1, §2, §3

HL-60(TB) = HL-60(TB) (Leukemia), 10 µM, 48 h; negative = cell death vs time zero
From the text: as §1, §2, §3

UACC-62 = UACC-62 (Melanoma), 10 µM, 48 h; negative = cell death vs time zero
From the text: as §1, §2, §3

U251 = U251 (CNS Cancer), 10 µM, 48 h; negative = cell death vs time zero
From the text: as §1, §2, §3

SF-268 = SF-268 (CNS Cancer), 10 µM, 48 h; negative = cell death vs time zero
From the text: as §1, §2, §3

BT-549 = BT-549 (Breast Cancer), 10 µM, 48 h; negative = cell death vs time zero
From the text: as §1, §2, §3

NCI-H460 = NCI-H460 (Non-Small Cell Lung Cancer), 10 µM, 48 h; negative = cell death vs time zero
From the text: as §1, §2, §3

MDA-MB-468 = MDA-MB-468 (Breast Cancer), 10 µM, 48 h; negative = cell death vs time zero
From the text: as §1, §2, §3

SK-MEL-2 = SK-MEL-2 (Melanoma), 10 µM, 48 h; negative = cell death vs time zero
From the text: as §1, §2, §3

| Compound | percent cell growth (HOP-62) [%] | percent cell growth (T-47D) [%] | percent cell growth (SW-620) [%] | percent cell growth (KM12) [%] | percent cell growth (CAKI-1) [%] | percent cell growth (NCI-H23) [%] | percent cell growth (CCRF-CEM) [%] | percent cell growth (RXF 393) [%] | percent cell growth (DU-145) [%] | percent cell growth (SR) [%] | percent cell growth (IGROV1) [%] | percent cell growth (M14) [%] | percent cell growth (SK-MEL-5) [%] | percent cell growth (SNB-75) [%] | percent cell growth (NCI-H226) [%] | percent cell growth (MDA-MB-231) [%] | percent cell growth (NCI-H322M) [%] | percent cell growth (PC-3) [%] | percent cell growth (ACHN) [%] | percent cell growth (HL-60(TB)) [%] | other results |
| --- | --- | --- | --- | --- | --- | --- | --- | --- | --- | --- | --- | --- | --- | --- | --- | --- | --- | --- | --- | --- | --- |
| C=CC/N=C1\NC(=O)/C(=C\c2c[nH]c3ncccc23)S1 [DJ-Allyl] | −10.8 | −8.7 | 7.4 | 7.9 | 30.2 | 6.8 | 7.1 | −41.3 | 12.7 | −9.5 | 17.0 | 24.5 | 2.0 | −67.3 | 10.7 | 19.8 | 10.2 | 12.6 | −1.2 | −14.5 | reduction in cell number (SNB-75; SNB-75 (CNS)): 60%; percent cell growth (UACC-62): 9.8%; percent cell growth (U251): 0.8%; percent cell growth (SF-268): −3.3%; percent cell growth (BT-549): −29.5%; percent cell growth (NCI-H460): 2.2%; percent cell growth (MDA-MB-468): 1.0%; percent cell growth (SK-MEL-2): −8.4% |
| CC/N=C1\NC(=O)/C(=C\c2c[nH]c3ncccc23)S1 [DJE4] | −26.5 | −9.7 | 6.5 | 6.2 | 20.6 | −7.9 | 3.0 | −39.3 | 9.9 | 0.4 | 21.7 | 0.7 | 9.2 | −71.8 | 10.8 | 10.7 | 5.8 | 2.3 | 0.7 | −22.4 | percent cell growth (UACC-62): −16.0%; percent cell growth (U251): −9.5%; percent cell growth (SF-268): −5.8%; percent cell growth (BT-549): −50.4%; percent cell growth (NCI-H460): 2.4%; percent cell growth (MDA-MB-468): −34.7%; percent cell growth (SK-MEL-2): −48.7% |
| O=C1N/C(=N\CCc2ccccc2)S/C1=C/c1c[nH]c2ncccc12 [DJ4] | 19.9 | 2.6 | 9.9 | 13.1 | 37.4 | 9.1 | 9.9 | −20.2 | 20.7 | 5.6 | 14.0 | 29.9 | 14.5 | −10.9 | 3.3 | 25.5 | 5.2 | 25.9 | 16.0 | 6.8 | percent cell growth (UACC-62): −1.4%; percent cell growth (U251): 15.8%; percent cell growth (SF-268): 10.4%; percent cell growth (BT-549): −7.9%; percent cell growth (NCI-H460): 14.1%; percent cell growth (MDA-MB-468): −14.5%; percent cell growth (SK-MEL-2): 28.8% |
| Cl.O=C1NC(=NCCc2ccccc2)SC1=Cc1c[nH]c2ncccc12 (mixture of isomers) [DJ4-HCl] | −3.0 | −1.3 | 7.8 | 9.3 | 54.8 | 3.0 | 5.5 | −30.1 | 15.3 | −1.5 | 25.6 | 31.7 | −0.2 | −13.3 | 22.4 | 25.9 | 19.6 | 19.2 | −12.0 | −6.6 | percent cell growth (UACC-62): −1.3%; percent cell growth (U251): 7.6%; percent cell growth (SF-268): 8.9%; percent cell growth (BT-549): 5.3%; percent cell growth (NCI-H460): 15.1%; percent cell growth (MDA-MB-468): −2.1%; percent cell growth (SK-MEL-2): −4.6% |
